The values below come from US20170371042A1, “CONTRAST AGENT FOR OPTICAL IMAGING, USE THEREOF AND APPARATUS USING THE SAME” (KYUNGPOOK NATIONAL UNIVERSITY INDUSTRY- ACADEMIC …, priority 2009, published 2017).

For series [1] the following is noted: cited from earlier work; for Decay mode EC (%): electron capture; for Ece mean: conversion electron.
Series [2] is described as follows: Luminescence imaging using [^18F]FDG. It counts as in vivo. Conditions: BALB/c mouse bearing luciferase-transfected 4T1 tumour cells, 1 hour after injecting 409 μCi via tail vein, no luciferin. The method, then: A BALB/c mouse with a luciferase-transfected 4T1 tumor was injected with […] of [^18F]FDG via the tail vein. One hour after the injection, the mouse was scanned for 3 minutes in the prone position using IVIS 200. […] The brain (red arrow) and the brown fat (white arrow) are clearly visualized.

The conditions of series [3]: normal mouse (C3H/HeN), 500 μCi intraperitoneally, 40 minutes post-injection.
Protocol: 500 mCi of ^124I was injected intraperitoneally into a normal mouse (C3H/HeN, Orient Bio Inc., Korea). 40 minutes after the injection, a luminescence image was obtained by scanning the mouse for 1 minute in the lying position.

For `OC[C@H]1OC(O)[C@H]([18F])[C@@H](O)[C@@H]1O` (stereo partly shown) [^18F, [^18F]FDG], in series [1], the half-life result is recorded as “(110 min)” and the “Decay mode EC (%)” value was “(3) %”. Further, in series [2], the “luminescence signal in mouse image” value was “intense signal was detected in the brain and brown fat area on the shoulder”.

As for `[64Cu+2].[Cl-].[Cl-]` [^64Cu, [^64Cu]CuCl2], the half-life result in series [1] is given as “(12.7 h)”.

Take `[68Ga+3].[Cl-].[Cl-].[Cl-]` [^68Ga, [^68Ga]GaCl3]: in series [1], the half-life result was “(68 min)” and the “Decay mode EC (%)” value is “(11) %”.

With `[Cl][111In]([Cl])[Cl]` [^111In, [^111In]InCl3], in series [1], the half-life result is on record as “(2.8 d)”, the Ece mean is recorded as 176 keV and the “Decay mode EC (%)” value is reported as “(100) %”.

Turning to `[124I-].[Na+]` [^124I, [^124I]NaI], the “uptake seen in luminescence image” value in series [3] was “high uptake in the thyroid and bladder region”. In series [1], the half-life result was “(4.2 d)” and the “Decay mode EC (%)” value was “(77) %”.

`[131I-].[Na+]` [^131I, [^131I]NaI]: the half-life result in series [1] is on record as “(8.0 d)”.

As to [^99mTc]TcO4^−, in series [1], the half-life entry was “(6.0 h)” and the Ece mean is reported as 14 keV. In series [1] (isomeric transition), the “Decay mode IT (%)” value is “(100) %”.
